Tests used:
[1] = test system: COX2; assay: COX2 gene expression by qPCR in CoCl2-induced hypoxic keratinocytes; type: cell-based; conditions: keratinocytes (HEKn) treated with 200 μM CoCl2, EGCG at 2.5 ppm, cultured for 18 hours
Description: (§1) First, keratinocytes (HEKn) (onza, Switzerland) were treated with 200 μM CoCl2 to induce a hypoxic environment. After that, the expression level of hypoxia-inducible factor 1-alpha (HIF1A) that was known to be expressed under hypoxia was compared with that before the treatment with CoCl2 (CTL in FIG. 1) to confirm that the expression level of HIF1A increased compared with that before the treatment with CoCl2 (FIG. 1), and thus skin (keratinocytes) damaged by hypoxia (hereinafter referred to as hypoxic keratinocytes) was prepared. Thereafter, in order to verify the effect of the strain isolated in Example 1 on the alleviation of skin damage due to hypoxia, the hypoxic keratinocytes were treated with the extract prepared in Example 2 at various concentrations and then cultured for 18 hours. […] Specifically, 10 μL of universal master mix (Taqman 2X Universal PCR mix, Applied Biosystems, Cat. No. 4304437) and 1 μL of TaqMan probe were added, 5 μL of CDNA was added to obtain a total volume of 20 μL, and PCR was performed using the Applied biosystem 7500 fast real time PCR system and the provided standard protocol. The expression of MMP1, an aging-related gene, and COX2, an inflammation-related gene, was examined through qPCR, and the results are illustrated in FIGS. 2 and 3. At this time, EGCG was used as Comparative Example. […]

[2] = test system: MMP1; assay: MMP1 gene expression by qPCR in CoCl2-induced hypoxic keratinocytes; type: cell-based; conditions: keratinocytes (HEKn) treated with 200 μM CoCl2, 2.5 µM EGCG, cultured for 18 hours
Description: as §1

## O=C(O[C@@H]1Cc2c(O)cc(O)cc2O[C@@H]1c1cc(O)c(O)c(O)c1)c1cc(O)c(O)c(O)c1 [EGCG]
[1]
  inhibition of COX2 overexpressed by hypoxia (expression level of COX2, FIG. 3): cannot inhibit expression of COX2 overexpressed by hypoxia
[2]
  inhibition of MMP1 overexpressed by hypoxia (expression level of MMP1, FIG. 2): cannot inhibit MMP1 overexpressed by hypoxia
